What was measured:
[1] = tested on: lysosome neutralization in primary CD4+ T cells; assay: Lysotracker Red flow cytometry assay in primary CD4+ T cells; type: cell-based, human
Method: (§1) Cells were treated with plecomacrolides at a density of 1×10^6 cells/mL for 24 hours, then treated with 100 nM LysoTracker Red DND-99 (Fisher, L7528) in PBS at a density of 1×10^6 cells/mL for 1 hour at 37° C., washed twice in PBS, and fixed in 2% PFA before flow cytometric analysis on a BioRad Ze5 flow cytometer.
Lysotracker Flow Cytometry Assay. Cells were treated with plecomacrolides at a density of 1×10^6 cells per milliliter for 24 h, and then treated with 100 nM LysoTracker Red DND-99 in phosphate-buffered saline (PBS) at a density of 1×10^6 cells per milliliter for 1 h at 37° C., washed twice in PBS, and fixed in 2% paraformaldehyde (PFA) before flow cytometric analysis on a flow cytometer.

[2] = tested on: ARF-1:AP-1:Nef:MHC-I complex; assay: Differential scanning fluorimetry (DSF) thermal stability assay; type: binding; details: 1-hour incubation, compared to solvent control
Description: The His6- and GST-tagged AP-1 core, mouse AP1M1 (157-423) (referred as μ1-CTD), human Arf1 (17-181)-Q71L, human MHC-I (338-365)-NL4-3 Nef, HIV-1 NL4-3 Nef constructs and protein purification were previously described. For GST pull down assay, codon-optimized human MHC-I (338-365) was subcloned into pGST parallel2 vector using BamHI/Xhol sites, fused an N-terminal GST tag and a TEV cleavage site. PCR encoding HIV-1 Nef or SlVsmm Nef fused with GFP was subcloned into LIC 2BT vector (Macrolab), expressed as a TEV-cleavable N-terminal His6 tag and C-terminal uncleavable GFP tag.
Recombinant AP-1 core was mixed with Arf1-GTP and MHC-I-Nef at the molar ratio of 1:4:6, then incubated at 4° C. overnight. […]
DSF assays were performed using a Stratagene Mx3000P RT-PCR (Stratagene, La Jolla, CA) to monitor protein unfolding by the florescence increasing of SYPRO Orang (Invitrogen, Carlsbad, Calif.). […] The Fluorescent intensity was measured using the SYBR green filter over the temperature range of 25 to 90° C. in 1 degree/min increments. After subtracting fluorescence from DMSO control reaction without protein, the average fluorescent intensities were plotted as a function of temperature. […] The fluorescence intensity (before post-peak region) was fitted to Boltzmann equation to obtain melting temperature (Tm).

[3] = tested on: HIV-infected primary CD4+ T cells; assay: Flow cytometric CTL killing assay; type: cell-based, human
Description: CTL clones were isolated by limiting dilution from HIV-1- infected individuals. […] The CTL clones were maintained in culture with periodic re-stimulation as previously described except for the following changes; CTL clones were stimulated with anti-CD3 clone 12F6 (NIH AIDS Reagent Program) and cultured with IL-2 (NIH AIDS Reagent Program, Hoffman-La Roche). Peripheral blood mononuclear feeder cells were isolated from leukopaks (New York Blood Center) and X-irradiated with […] in R10 medium. Irradiations were performed using a Kimtron IC 225(Kimtron Medical) at a dose rate of approximately 2 Gy/min in the University of Michigan Comprehensive Cancer Center Experimental Irradiation Core (Ann Arbor, Mich.). CTL clones 115B15 and 161JXA14 both recognize HIV gag amino acids 77-85; SLYNTVATL presented by MHC-I HLA-A2 (71).
CTL elimination assays were performed as previously described with the following modifications: 72 hours post-infection primary CD4^+ T cells were stained with CellTracker Green (Fisher, c7025) according to manufacturer's protocol and treated with 0.5 nM CMA or solvent control for 24 hours. 50,000 target cells were used per condition, and following the 4 hours of co-culture, the cells were stained with DAPI as a viability dye in addition to anti-PLAP and BB7.2 antibodies. […]

CEM-A2 cells = assay: Lysotracker Red and Nef activity in CEM-A2 cells; type: cell-based, human; details: 1.25 nM
Method: as §1
To test this directly, CEM-A2 cells transduced with an adenoviral vector expressing Nef were used. This system has been used to study the formation of the AP-1:Nef:MHC-I complex under conditions where ammonium chloride prevents lysosomal degradation. Higher concentrations of CMA were required for reversal of Nef activity in CEM cells. […] This is functionally similar to 0.5 nM CMA treatment in CD4^+ T cells.

SMILES: C/C=C/[C@H]1O[C@@](O)([C@@H](C)[C@H](O)[C@H](C)[C@H]2OC(=O)/C(OC)=C/C(C)=C/[C@@H](C)[C@@H](O)[C@@H](CC)[C@@H](O)[C@H](C)C/C(C)=C/C=C/[C@@H]2OC)C[C@@H](O[C@H]2C[C@@H](O)[C@H](OC(N)=O)[C@@H](C)O2)[C@@H]1C [CMA, concanamycin A]
- difference between EC50 for lysosome neutralization and EC50 for Nef inhibition [1]: 27 fold
- EC50 ([1]; 24 hours): 1.9 nM
- change in Tm of complex components [2]: No significant changes in Tm
- CTL-mediated elimination of PLAP+ cells infected with Nef-competent virus ([3]; 0.5 nM, 24 hours): efficiently eliminated by CTLs
- clearance of SL9 peptide-pulsed target cells by anti-HIV CTLs ([3]; in the presence of 0.5 nM): No change in the clearance
- Nef inhibition versus intracellular acidification (CEM-A2 cells): inhibited Nef without significantly altering intracellular acidification

Source: patent US12594258B2, “Inhibitors of MHC-I Nef downmodulation for treating HIV” (priority 2019, dated 2026)
